Test results reported in patent US7211572B2 (Japan Tobacco Inc., priority 2003, dated 2007).
Where a name gives a salt, the structure may show the parent alone.

The molecules below were run against T1, HIV integrase (Human immunodeficiency virus type 1 group M subtype B, UniProt P12497, F1332H) (assay: Determination of enzyme (HIV integrase) inhibitory activity). Settings: recombinant HIV integrase (F185H), strand transfer ELISA, absorbance at 450 nm.
T1 construct: HIV integrase full length gene; made in house; host or cells: Escherichia coli BL21(DE3), plasmid pET21a-INH
Format: biochemical
In short: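 Full-length integrase with F185H, expressed in E. coli and purified, was reacted for 60 min at 37 °C with compound and biotinylated donor DNA bound to streptavidin plates. Target DNA was added for 10 min, then anti-digoxigenin-peroxidase detection at A450; IC50 from % inhibition versus enzyme-free blank.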

SMILES | IC50
O=C1c2c(O)c(=O)c(-c3nccs3)cn2CCN1Cc1cccc(Cl)c1 [Example 215, 2-(3-chlorobenzyl)-9-hydroxy-7-(thiazol-2-yl)-3,4-dihydro-2H-pyrido[1,2-a]pyrazine-1,8-dione] | < 0.01 µM
O=c1c(CO)cn2ccn(Cc3cccc(Cl)c3)c(=O)c2c1O [Example 216, 2-(3-chlorobenzyl)-9-hydroxy-7-hydroxymethyl-2H-pyrido[1,2-a]pyrazine-1,8-dione hydrochloride] | 0.01 to 0.1 µM
CC(C)(C)C(=O)c1cn2ccn(Cc3ccc(F)c(Cl)c3)c(=O)c2c(O)c1=O [Example 217, 2-(3-chloro-4-fluorobenzyl)-7-(2,2-dimethylpropionyl)-9-hydroxy-2H-pyrido[1,2-a]pyrazine-1,8-dione hydrochloride] | < 0.01 µM
O=c1c(-c2cncs2)cn2ccn(Cc3cccc(Cl)c3)c(=O)c2c1O [Example 218, 2-(3-chlorobenzyl)-9-hydroxy-7-(thiazol-5-yl)-2H-pyrido[1,2-a]pyrazine-1,8-dione hydrochloride] | < 0.01 µM
CNC(=O)c1cn2c(c(O)c1=O)C(=O)N(Cc1cccc(Cl)c1)CC2 [Example 219, 2-(3-chlorobenzyl)-9-hydroxy-1,8-dioxo-1,3,4,8-tetrahydro-2H-pyrido[1,2-a]pyrazine-7-carboxylic acid methylamide] | 0.01 to 0.1 µM
CN(C)C(=O)c1cn2c(c(O)c1=O)C(=O)N(Cc1cccc(Cl)c1)CC2 [Example 220, N,N-dimethyl-2-(3-chlorobenzyl)-9-hydroxy-1,8-dioxo-1,3,4,8-tetrahydro-2H-pyrido[1,2-a]pyrazine-7-carboxamide] | 0.01 to 0.1 µM
CC(C)(C)C(=O)c1cn2c(c(O)c1=O)C(=O)N(Cc1ccc(F)c(Cl)c1)CC2 [Example 221, 2-(3-chloro-4-fluorobenzyl)-7-(2,2-dimethylpropionyl)-9-hydroxy-3,4-dihydro-2H-pyrido[1,2-a]pyrazine-1,8-dione hydrochloride] | < 0.01 µM
CNC(=O)c1cn2c(CO)cn(Cc3ccc(F)c(Cl)c3)c(=O)c2c(O)c1=O [Example 222, 2-(3-chloro-4-fluorobenzyl)-9-hydroxy-4-hydroxymethyl-1,8-dioxo-1,8-dihydro-2H-pyrido[1,2-a]pyrazine-7-carboxylic acid methylamide hydrochloride] | < 0.01 µM
CC(C)(C)C(=O)c1cn2c(c(O)c1=O)C(=O)N(Cc1cccc(Cl)c1)CC2 [Example 223, 2-(3-chlorobenzyl)-7-(2,2-dimethylpropionyl)-9-hydroxy-3,4-dihydro-2H-pyrido[1,2-a]pyrazine-1,8-dione hydrochloride] | 0.01 to 0.1 µM
O=c1ccn2ccn(Cc3ccc(Cl)cc3O)c(=O)c2c1O [Example 224, 2-(4-chloro-2-hydroxybenzyl)-9-hydroxy-2H-pyrido[1,2-a]pyrazine-1,8-dione hydrochloride] | 0.01 to 0.1 µM
O=C1c2c(O)c(=O)c(-c3nccs3)cn2CCN1Cc1ccc(F)c(Cl)c1 [Example 225, 2-(3-chloro-4-fluorobenzyl)-9-hydroxy-7-(thiazol-2-yl)-3,4-dihydro-2H-pyrido[1,2-a]pyrazine-1,8-dione] | < 0.01 µM
CN(C(=O)Cn1ccn2ccc(=O)c(O)c2c1=O)c1ccccc1 [Example 226, 2-(9-hydroxy-1,8-dioxo-1,8-dihydro-pyrido[1,2-a]pyrazin-2-yl)-N-methyl-N-phenylacetamide hydrochloride] | 0.1 to 1 µM
CNC(=O)c1cn2c(c(O)c1=O)C(=O)N(Cc1ccc(F)c(Cl)c1)CC2 [Example 227, N-methyl-2-(3-chloro-4-fluorobenzyl)-9-hydroxy-1,8-dioxo-1,3,4,8-tetrahydro-2H-pyrido[1,2-a]pyrazine-7-carboxamide] | 0.01 to 0.1 µM
CN(C)C(=O)c1cn2c(c(O)c1=O)C(=O)N(Cc1ccc(F)c(Cl)c1)CC2 [Example 228, N,N-dimethyl-2-(3-chloro-4-fluorobenzyl)-9-hydroxy-1,8-dioxo-1,3,4,8-tetrahydro-2H-pyrido[1,2-a]pyrazine-7-carboxamide] | 0.01 to 0.1 µM
CC(=O)OCC(C)(C)C(=O)c1cn2ccn(Cc3cccc(Cl)c3)c(=O)c2c(O)c1=O [Example 229, 3-[2-(3-chlorobenzyl)-9-hydroxy-1,8-dioxo-1,8-dihydro-2H-pyrido[1,2-a]pyrazin-7-yl]-2,2-dimethyl-3-oxopropyl acetate hydrochloride] | < 0.01 µM
CC(C)(CO)C(=O)c1cn2ccn(Cc3cccc(Cl)c3)c(=O)c2c(O)c1=O [Example 230, 2-(3-chlorobenzyl)-9-hydroxy-7-(3-hydroxy-2,2-dimethylpropionyl)-2H-pyrido[1,2-a]pyrazine-1,8-dione hydrochloride] | < 0.01 µM
O=c1c(-c2cnccn2)cn2ccn(Cc3cccc(Cl)c3)c(=O)c2c1O [Example 231, 2-(3-chlorobenzyl)-9-hydroxy-7-(pyrazin-2-yl)-2H-pyrido [1,2-a]pyrazine-1,8-dione hydrochloride] | < 0.01 µM
Cn1ncnc1-c1cn2ccn(Cc3cccc(Cl)c3)c(=O)c2c(O)c1=O [Example 232, 2-(3-chlorobenzyl)-9-hydroxy-7-(2-methyl-2H-1,2,4-triazol-3-yl)-2H-pyrido[1,2-a]pyrazine-1,8-dione hydrochloride] | < 0.01 µM

SMILES | IC50
O=C(NCCF)c1cn2ccn(Cc3cccc(Cl)c3)c(=O)c2c(O)c1=O [Example 233, N-(2-fluoroethyl)-2-(3-chlorobenzyl)-9-hydroxy-1,8-dioxo-1,8-dihydro-2H-pyrido[1,2-a]pyrazine-7-carboxamide] | < 0.01 µM
CN(Cc1ccccc1)C(=O)c1cn2ccn(Cc3cccc(Cl)c3)c(=O)c2c(O)c1=O [Example 234, N-benzyl-N-methyl-2-(3-chlorobenzyl)-9-hydroxy-1,8-dioxo-1,8-dihydro-2H-pyrido[1,2-a]pyrazine-7-carboxamide] | < 0.01 µM
O=c1c(Sc2ccccc2)cn2ccn(Cc3cccc(Cl)c3)c(=O)c2c1O [Example 235, 2-(3-chlorobenzyl)-9-hydroxy-7-phenylsulfanyl-2H-pyrido [1,2-a]pyrazine-1,8-dione] | 0.01 to 0.1 µM
O=c1c([S+]([O-])c2ccccc2)cn2ccn(Cc3cccc(Cl)c3)c(=O)c2c1O (stereo not drawn) [Example 236, 7-benzenesulfinyl-2-(3-chlorobenzyl)-9-hydroxy-2H-pyrido[1,2-a]pyrazine-1,8-dione] | 0.01 to 0.1 µM
O=c1c(S(=O)(=O)c2ccccc2)cn2ccn(Cc3cccc(Cl)c3)c(=O)c2c1O [Example 237, 7-benzenesulfonyl-2-(3-chlorobenzyl)-9-hydroxy-2H-pyrido [1,2-a]pyrazine-1,8-dione] | 0.01 to 0.1 µM
CC(C)(C)C(=O)c1cn2c(c(O)c1=O)C(=O)N(Cc1ccc(Cl)c(Cl)c1)CC2 [Example 238, 2-(3,4-dichlorobenzyl)-7-(2,2-dimethylpropionyl)-9-hydroxy-3,4-dihydro-2H-pyrido[1,2-a]pyrazine-1,8-dione] | < 0.01 µM
CC(C)C(=O)Nc1cn2ccn(Cc3cccc(Cl)c3)c(=O)c2c(O)c1=O [Example 239, N-[2-(3-chlorobenzyl)-9-hydroxy-1,8-dioxo-1,8-dihydro-2H-pyrido[1,2-a]pyrazin-7-yl]isobutyramide] | < 0.01 µM
CC(=O)Nc1cn2ccn(Cc3ccc(F)c(Cl)c3)c(=O)c2c(O)c1=O [Example 240, N-[2-(3-chloro-4-fluorobenzyl)-9-hydroxy-1,8-dioxo-1,8-dihydro-2H-pyrido[1,2-a]pyrazin-7-yl]acetamide] | < 0.01 µM
CC(C)(C)C(=O)c1cn2c(CO)cn(Cc3ccc(F)c(Cl)c3)c(=O)c2c(O)c1=O [Example 241, 2-(3-chloro-4-fluorobenzyl)-7-(2,2-dimethylpropionyl)-9-hydroxy-4-hydroxymethyl-2H-pyrido[1,2-a]pyrazine-1,8-dione hydrochloride] | < 0.01 µM
CCC(=O)Nc1cn2ccn(Cc3cccc(Cl)c3)c(=O)c2c(O)c1=O [Example 242, N-[2-(3-chlorobenzyl)-9-hydroxy-1,8-dioxo-1,8-dihydro-2H-pyrido[1,2-a]pyrazin-7-yl]propionamide] | < 0.01 µM
O=C(Cc1ccccc1)Nc1cn2ccn(Cc3cccc(Cl)c3)c(=O)c2c(O)c1=O [Example 243, N-[2-(3-chlorobenzyl)-9-hydroxy-1,8-dioxo-1,8-dihydro-2H-pyrido[1,2-a]pyrazin-7-yl]-2-phenylacetamide] | < 0.01 µM
CC(=O)c1cn2ccn(Cc3ccc(F)c(Cl)c3)c(=O)c2c(O)c1=O [Example 244, 7-acetyl-2-(3-chloro-4-fluorobenzyl)-9-hydroxy-2H-pyrido[1,2-a]pyrazine-1,8-dione hydrochloride] | < 0.01 µM
CSc1cn2ccn(Cc3cccc(Cl)c3)c(=O)c2c(O)c1=O [Example 245, 2-(3-chlorobenzyl)-9-hydroxy-7-methylsulfanyl-2H-pyrido[1,2-a]pyrazine-1,8-dione] | 0.01 to 0.1 µM
CS(=O)(=O)c1cn2ccn(Cc3cccc(Cl)c3)c(=O)c2c(O)c1=O [Example 246, 2-(3-chlorobenzyl)-9-hydroxy-7-methanesulfonyl-2H-pyrido[1,2-a]pyrazine-1,8-dione] | 0.01 to 0.1 µM
C[S+]([O-])c1cn2ccn(Cc3cccc(Cl)c3)c(=O)c2c(O)c1=O (stereo not drawn) [Example 247, 2-(3-chlorobenzyl)-9-hydroxy-7-methanesulfinyl-2H-pyrido[1,2-a]pyrazine-1,8-dione] | 0.01 to 0.1 µM
Cc1cnc(-c2cn3c(c(O)c2=O)C(=O)N(Cc2cccc(Cl)c2)CC3)s1 [Example 248, 2-(3-chlorobenzyl)-9-hydroxy-7-(5-methylthiazol-2-yl)-3,4-dihydro-2H-pyrido[1,2-a]pyrazine-1,8-dione] | < 0.01 µM
O=C1c2c(O)c(=O)c(-c3nccs3)cn2CCN1Cc1ccc(Cl)c(Cl)c1 [Example 249, 2-(3,4-dichlorobenzyl)-9-hydroxy-7-(thiazol-2-yl)-3,4-dihydro-2H-pyrido[1,2-a]pyrazine-1,8-dione] | < 0.01 µM
O=c1ccn2ccn(Cc3ccc(F)cc3)c(=O)c2c1O [Example 250, 2-(4-fluorobenzyl)-9-hydroxy-2H-pyrido[1,2-a]pyrazine-1,8-dione hydrochloride] | 0.01 to 0.1 µM
